Data reported in BigSolDB 2.1.

CC1CCc2cc(F)cc3c(=O)c(C(=O)O)cn1c23 (stereo not given)
Conditions	solubility (mole fraction)
in ethanol, 301.9 K	0.00015
in ethanol, 309.9 K	0.00017
in ethanol, 315.2 K	0.00023
in ethanol, 320.7 K	0.00034
in ethanol, 328.7 K	0.00053
in ethanol, 331.7 K	0.00062
in ethanol, 335.5 K	0.00075
in ethanol, 339.1 K	0.00085
in ethanol, 340.5 K	0.00091
in ethanol, 342.1 K	0.00096
in ethanol, 344.2 K	0.00114
in ethanol, 345.5 K	0.0012
in water, 298.2 K	2.1e-05
in water, 303.2 K	2.3e-05
in water, 308.2 K	2.6e-05
in water, 313.2 K	2.8e-05
in water, 318.2 K	3.2e-05
in water, 323.2 K	3.8e-05

CCn1cc(C(=O)O)c(=O)c2cc(F)c(N3CCNC(C)C3)c(F)c21.Cl (stereo not given)
solubility (mole fraction)
Conditions	in ethanol	in water
296 K	–	0.00088
298.2 K	3e-05	0.0009
303.2 K	3.2e-05	–
308.2 K	3.8e-05	–
311.7 K	–	0.00099
313.2 K	4.1e-05	–
316.3 K	–	0.00104
318.2 K	4.4e-05	–
318.9 K	–	0.0011
320.5 K	–	0.00112
323.2 K	5e-05	–
328.3 K	–	0.00121
335.9 K	–	0.00129
338.7 K	–	0.00134
340.7 K	–	0.00138
344.2 K	–	0.00145

CCn1nc(C(=O)O)c(=O)c2cc3c(cc21)OCO3
Conditions	solubility (mole fraction)
in ethanol, 300.2 K	5e-05
in ethanol, 303.1 K	6e-05
in ethanol, 311.4 K	8e-05
in ethanol, 315.1 K	0.0001
in ethanol, 319.5 K	0.00011
in ethanol, 321.6 K	0.00013
in ethanol, 325.6 K	0.00015
in ethanol, 329.1 K	0.00018
in ethanol, 334 K	0.0002
in ethanol, 337.2 K	0.00024
in ethanol, 339.8 K	0.00028
in ethanol, 342.8 K	0.00031
in ethanol, 345.6 K	0.00037
in water, 298.2 K	4.2e-06
in water, 303.2 K	5e-06
in water, 308.2 K	5.4e-06
in water, 313.2 K	5.9e-06
in water, 318.2 K	7.1e-06
in water, 323.2 K	9.9e-06

CCn1cc(C(=O)O)c(=O)c2cc(F)c(N3CCNCC3)cc21
in water
Conditions	solubility (mole fraction)
303.2 K	7.3e-06
308.2 K	9.1e-06
313.2 K	1.12e-05
318.2 K	1.37e-05
323.2 K	1.7e-05
328.2 K	2.05e-05
